Data on eleven compounds can be found in patent US8969395B2, “Triterpenoid derivatives useful as antiproliferative agents” (Universidade de Coimbra, priority 2009, dated 2015).

Molecules are shown by their SMILES.

The test system of assay [1] is LAPC4 (human prostate adenocarcinoma). As to the kind of experiment: Cytotoxic activity, LAPC4. It is filed as cell-based. Particulars: mean ±SD. The protocol:
(§1) Compounds presented in Table 6 were also tested in the following cell lines: PC-3 (human prostate adenocarcinoma), LNCaP (human prostate adenocarcinoma), LAPC4 (human prostate adenocarcinoma) and HT-29 (human colon adenocarcinoma).

Assay [2] concerns HeLa (human cervical adenocarcinoma). As to the kind of experiment: Cytotoxic activity, MTT assay, HeLa. As to conditions: 72 h, mean ±SD. It is filed as cell-based. The protocol: (§2) The cytotoxic of compounds of formulas (I) and (II) 14-50 was assessed towards human cancer (HepG2, HeLa and Jurkat) cell lines (Table 3 below). Compounds presented on Table 4 were also tested against a non-tumoral liver cell line (Chang liver). The cell viability of HeLa, HepG2 and Chang liver cells was determined by the MTT assay. Briefly, exponentially growing cells were plated in 96-well plates at a density of 1×10^3, 8×10^3 and 5×10^3 cells/well respectively and incubated for 24 h before treatment. The grown medium was replaced with one contained the tested compounds dissolved in DMSO (final DMSO concentration <0.1%) at different concentrations, in triplicate wells, and cells were incubated for 72 h. After incubation with the compounds, the medium was removed and MTT solution (0.5 mg/ml, 100 μl) was added to each well and the plates were incubated again for 1 h. DMSO (100 μl) was then added to dissolve the formazan crystals and the plates were immediately read at 550 nm on an ELISA plate reader (Tecan Sunrise MR20-301, TECAN, Austria). For the Jurkat cells, the cell viability was determined by the XTT assay. Briefly, exponentially growing cells were plated in 96-well plates at a density of 5.5×10^3 cells/well, treated with different concentrations of compounds in triplicate and incubated for 72 h. After incubation with the compounds the XTT labeling mixture (100 μl) were added to each of the wells and after a 4 h incubation period the plates were read at 450 nm on an ELISA plate reader. […] Known for its cytotoxic activity, betulinic acid 2 was used as a positive control in this experimentation.
Background: Formazan colour is commonly taken as a measure of viable cells.

Assay [3] has as its system PC-3 (human prostate adenocarcinoma). As to the kind of experiment: Cytotoxic activity, PC-3. It is filed as cell-based. As to conditions: mean ±SD. The protocol: as §1
Assay [4] relates to Chang liver (human normal liver cells). Put plainly: Cytotoxic activity against non-tumoral cell line, MTT assay. It is filed as cell-based. As to conditions: 72 h, mean ±SD. The protocol:
as §2, with “experimentation. […] All the IC50 results represent an average of a minimum of three experiments and were expressed as means±standard deviation (SD).” for “experimentation.”

In assay [5] the test system is HepG2 (human hepatocellular carcinoma). As to the kind of experiment: Cytotoxic activity, MTT assay, HepG2. The format is cell-based. Particulars: mean ±SD. The protocol: as §2, with “experimentation. […] All the IC50 results represent an average of a minimum of three experiments and were expressed as means±standard deviation (SD).” for “experimentation.”
Assay [6] relates to LNCaP (human prostate adenocarcinoma). Put plainly: Cytotoxic activity, LNCaP. The format is cell-based. As to conditions: mean ±SD. The protocol: as §1
The subject of the next assay is Jurkat (human leukemia). Put plainly: Cytotoxic activity, XTT assay, Jurkat. As to conditions: 72 h, mean ±SD. It is filed as cell-based. The protocol: as §2, with “experimentation. […] All the IC50 results represent an average of a minimum of three experiments and were expressed as means±standard deviation (SD).” for “experimentation.”
A further assay concerns HepG2 cells. As to the kind of experiment: Cell cycle analysis by flow cytometry (FACS, PI), HepG2. Particulars: HepG2, compound at its IC50, 72 h. The format is cell-based, human. The protocol: (§3) The effects on the cell cycle of some of these compounds were assessed through flow cytometry by using a fluorescence-activated cell sorter (FACS) (Table 5 below). For this assay 2.3×10^5 HepG2 cells/well, 2.9×10^4 HeLa cells/well, 1.6×10^5 Jurkat cells/well and 1.4×10^5 Chang liver cells/well were plated in 6 well plates with 2 ml of medium. The number of cells was determined by the relationship number of cells/area wells, considering the number of cells that were cultured in 96-well plates. […] Chang liver cells were incubated with compounds 20, […] at concentrations corresponding to the IC80 determined for HepG2 at 72 h. Following 72 h. of incubation, cells were harvested by mild trypsinization, collected by centrifugation and stained in ice-cold Tris-buffered saline (TBS), containing 1 mg/ml PI, 10 mg/ml RNAse free of DNAase and 0.1% Igepal CA-630 for 1 h at 4° C. FACS analysis was carried out at 488 nm in an Epics XL flow cytometer (Coulter Corporation, Hialeah, Fla.). Data from 8×10^3 cells were collected and analyzed using Multicycle program (Phoenix Flow Systems, San Diego, Calif.). All experiments were performed three times with three replicates per experiment. […] To explore the selectivity of the effect on tumor cells, we also tested compounds 20, 44 and 46 in a non-malignant cell line. Chang liver cells were treated with the compounds at the IC80 values determined for HepG2 after 72 h of incubation and no effect was observed, indicating a selective effect of these agents (Table 5 below).
(In flow cytometry, cells or beads pass a laser one at a time.)

A further assay relates to Jurkat cells. Put plainly: Cell cycle analysis by flow cytometry (FACS, PI), Jurkat. It is filed as cell-based, human. Particulars: compound at its IC50, 72 h. The protocol:
as §3

A further assay deals with HeLa cells. As to the kind of experiment: Cell cycle analysis by flow cytometry (FACS, PI), HeLa. Particulars: compound at its IC50, 72 h. The format is cell-based, human. The protocol: as §3

In the case of `C[C@@H](C=O)[C@@H]1CC[C@]2(COC(=O)n3ccnc3)CC[C@]3(C)[C@H](CC[C@@H]4[C@@]5(C)CC[C@H](O)C(C)(C)[C@@H]5CC[C@]43C)[C@@H]12` [Compound 41, 3β-hydroxy-(20R)-lupan-29-oxo-28-yl-1H-imidazole-1-carboxylate], the IC50 (commonly the midpoint of a concentration-inhibition curve) was more than 30 µM in assay [1]; 11.1 ± 1.4 µM in assay [2]; 16.7 ± 2.4 µM in assay [3]; 146 ± 4.5 µM in assay [4]; 11.5 ± 1.1 µM in [5] (72 h); 15.6 ± 2.4 µM in assay [6]. The compound further gave an IC50 in the assay on Jurkat (human leukemia) of 13.7 ± 1.4 µM.

As for `C=C(C)[C@@H]1CC[C@]2(C(=O)O)CC[C@]3(C)[C@H](CC[C@@H]4[C@@]5(C)CC[C@H](OC(=O)n6ccnc6)C(C)(C)[C@@H]5CC[C@]43C)[C@@H]12` [Compound 28, 3β-(1H-imidazole-1-carbonyloxy)-lup-20(29)-en-28-oic acid], the IC50 in assay [1] came out at 11.8 ± 0.9 µM; in assay [2], 5.1 ± 0.3 µM; in assay [3], 5.6 ± 0.4 µM; in assay [4], 56.8 ± 2.2 µM; in [5] (72 h), 6.2 ± 0.2 µM; in assay [6], 15.6 ± 0.8 µM. Moreover, the IC50 in the assay with Jurkat (human leukemia) came to 5.2 ± 0.7 µM.

Take `C=C(C)[C@@H]1CC[C@]2(C(=O)OC)CC[C@]3(C)[C@H](CC[C@@H]4[C@@]5(C)CC[C@H](OC(=O)n6ccnc6)C(C)(C)[C@@H]5CC[C@]43C)[C@@H]12` [Compound 33, Methyl 3β-(1H-imidazole-1-carbonyloxy)-lup-20(29)-en-28-oate]: the concentration for half-maximal inhibition (IC50) in assay [2] amounted to 8.2 ± 0.5 µM; in assay [4], 73.9 ± 3.6 µM; in assay [5] (72 h), 4.3 ± 0.1 µM; with Jurkat (human leukemia), 9.9 ± 0.6 µM.

For `C=C(C)[C@@H]1CC[C@]2(C(=O)n3ccnc3)CC[C@]3(C)[C@H](CC[C@@H]4[C@@]5(C)C=C(O)C(=O)C(C)(C)[C@@H]5CC[C@]43C)[C@@H]12` [Compound 48, 2-hydroxy-28-(1H-imidazol-1-yl)-lup-1,20(29)-dien-3,28-dione], the IC50 is 4.6 ± 0.7 µM in [2], 62.8 ± 10.3 µM in [4], 6.5 ± 0.4 µM in [5] (72 h) and 7 ± 1.6 µM in the assay on Jurkat (human leukemia).

On to `C=C(C)[C@@H]1CC[C@]2(C(=O)n3ccnc3)CC[C@]3(C)[C@H](CC[C@@H]4[C@@]5(C)CC[C@H](OC(=O)n6ccnc6)C(C)(C)[C@@H]5CC[C@]43C)[C@@H]12` [Compound 30, 28-(1H-imidazole-1-yl)-28-oxo-lup-20(29)-en-3β-yl-1H-imidazole-1-carboxylate], for which the IC50 in assay [1] was found to be 4.4 ± 0.2 µM; in [2], 8.2 ± 0.4 µM; in assay [3], 1.1 ± 0.1 µM; in assay [4], 150 ± 13.6 µM; in assay [5] (72 h), 2.9 ± 0.4 µM; in assay [6], 1.9 ± 0.2 µM. Also, the midpoint of inhibition in the assay on Jurkat (human leukemia), the IC50, lay at 6 ± 1.2 µM.

Turning to `C=C(C)[C@@H]1CC[C@]2(C(=O)n3ccnc3)CC[C@]3(C)[C@H](CC[C@@H]4[C@@]5(C)C=C(OC(=O)n6ccnc6)C(=O)C(C)(C)[C@@H]5CC[C@]43C)[C@@H]12` [Compound 49, 2-(1H-imidazole-1-carbonyloxy)-28-(1H-imidazol-1-yl)-lup-1,20(29)-dien-3,28-dione], the IC50 in [2] was determined as 3.9 ± 0.3 µM; in assay [4], 71.6 ± 4.9 µM; in assay [5] (72 h) it was 4 ± 0.3 µM; with Jurkat (human leukemia), 8.1 ± 0.6 µM.

`C=C(COC)[C@@H]1CC[C@]2(COC(=O)n3ccnc3)CC[C@]3(C)[C@H](CC[C@@H]4[C@@]5(C)CC[C@H](OC(=O)n6ccnc6)C(C)(C)[C@@H]5CC[C@]43C)[C@@H]12` [Compound 38, 30-methoxylup-20(29)-en-3β,28-di-yl-(1H-imidazole-1-carboxylate)]: the IC50 in assay [1] is 7.3 ± 1.1 µM; in [2] it was more than 30 µM; in assay [3], 2 ± 0.3 µM; in [4], 170 ± 17.7 µM; in assay [5] (72 h), 19.6 ± 1.6 µM; in [6], 8.1 ± 1 µM. The IC50 in the assay with Jurkat (human leukemia) was determined as 16.2 ± 1 µM.

For the compound `C=C(C)[C@@H]1CC[C@]2(COC(=O)n3ccnc3)CC[C@]3(C)[C@H](CC[C@@H]4[C@@]5(C)CC[C@H](OC(=O)n6ccnc6)C(C)(C)[C@@H]5CC[C@]43C)[C@@H]12` [Compound 17, Lup-20(29)-en-3β,28-di-yl-(1H-imidazole-1-carboxylate)], the IC50 in [1] is 12.9 ± 1.1 µM; in [2], more than 30 µM; in assay [3], more than 30 µM; in assay [5] (72 h) it was more than 30 µM; in assay [6], 14.4 ± 1.3 µM; with Jurkat (human leukemia) it was more than 30 µM.

As for `C=C(C)[C@@H]1CC[C@]2(C(=O)O)CC[C@]3(C)[C@H](CC[C@@H]4[C@@]5(C)CC[C@H](O)C(C)(C)[C@@H]5CC[C@]43C)[C@@H]12` [Compound 2, Betulinic acid, reference compound], the “Phase of cell cycle (% of cells) G0/G1” value in the assay on HepG2 cells is given as 59.7 ± 2.0 % of cells; in the assay on Jurkat cells, 56.8 ± 5.0 % of cells; with HeLa cells, 66.8 ± 1.2 % of cells. Besides, the “Phase of cell cycle (% of cells) G2/M” value in the assay on HepG2 cells was 14.3 ± 0.9 % of cells; in the assay on Jurkat cells, 24.1 ± 4.7 % of cells; with HeLa cells it was 11.7 ± 1.1 % of cells. The “Phase of cell cycle (% of cells) S” value in the assay with HepG2 cells was 25.9 ± 1.3 % of cells; in the assay on Jurkat cells, 18.9 ± 1.2 % of cells; in the assay on HeLa cells, 21.4 ± 0.9 % of cells. Moreover, the IC50 in assay [2] (Homo sapiens, HeLa) stood at 26 ± 2.1 µM; in assay [4] (Homo sapiens, Chang liver) it was 92.3 ± 4.1 µM; in [5] (Homo sapiens, HepG2, 72 h) it was 36.4 ± 1.5 µM; in the assay with Jurkat (human leukemia) (Homo sapiens, Jurkat), 26.9 ± 2.2 µM.

Turning to `C=C(C)[C@@H]1CC[C@]2(COC(=O)n3ccnc3C)CC[C@]3(C)[C@H](CC[C@@H]4[C@@]5(C)CC[C@H](OC(=O)n6ccnc6C)C(C)(C)[C@@H]5CC[C@]43C)[C@@H]12` [Compound 18, Lup-20(29)-en-3β,28-di-yl-(2′-methyl-1H-imidazole-1-carboxylate)], the half-maximal inhibitory concentration (IC50) (in [2]; in assay [5] (72 h); in the assay with Jurkat (human leukemia)) was more than 30 µM each time.

Turning to `C=C(C)[C@@H]1CC[C@]2(COC(=O)n3ccnc3C)CC[C@]3(C)[C@H](CC[C@@H]4[C@@]5(C)CC[C@H](OC(C)=O)C(C)(C)[C@@H]5CC[C@]43C)[C@@H]12` [Compound 23, 3β-acetoxy-lup-20(29)-en-28-yl-2′-methyl-1H-imidazole-1-carboxylate], the IC50 (in assay [2]; in [5] (72 h); in the assay on Jurkat (human leukemia)) was more than 30 µM in each case.
